Broadly, the Kd is the concentration at which binding is half-saturated. A low value points to higher affinity.

The text below walks through data of article PMC8904520, “Characterization of a small-molecule inhibitor targeting NEMO/IKKβ to suppress colorectal cancer growth” (Signal Transduction and Targeted Therapy, 2022).

For data set [1], the system named is NF-κB luciferase activity in LoVo cells. The experiment in a line: NF-κB dual-luciferase reporter assay. Format: cell-based, human. The note with it: 0.5 and 1 µM, 48 h. As to the method: LoVo cells in a 6-well plate were transfected with the pNFκB-luc plasmid (Beyotime), which contains the luciferase coding region downstream of an NFκB-responsive promoter, using Lipofectamine 2000 Reagent (Invitrogen, Grand Island, NY, USA). After transfection, the cells were treated with SHK (0.5 and 1µM) for 48 h. The dual-luciferase reporter assay system (Promega, Madison, WI) was used to measure the changes of luciferase activity in the cell lysates. The firefly luciferase activities were normalized to the corresponding Renilla luciferase activities. All values are shown as means ± SD of triplicate experiments.
(In general: A reporter such as luciferase makes a cellular process visible.)

The target of a further data set is T1, GST-NEMO (1–196) (Homo sapiens, UniProt Q9Y6K9).
T1 construct: assays using MBP-IKKβ (701–745) and GST-NEMO (1–196) peptides; made in house; host or cells: E. coli BL21(DE3)
T1 sequence (Q9Y6K9 1-196): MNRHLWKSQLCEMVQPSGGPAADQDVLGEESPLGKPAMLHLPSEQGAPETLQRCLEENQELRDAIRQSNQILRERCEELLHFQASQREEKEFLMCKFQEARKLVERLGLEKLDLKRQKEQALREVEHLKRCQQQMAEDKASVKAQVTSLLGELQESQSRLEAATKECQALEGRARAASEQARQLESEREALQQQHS
The experiment in a line: SPR affinity assay on captured GST-NEMO. Format: binding. The procedure:
According to the instructions from GE, an anti-GST antibody was immobilized onto the CM5 chip surface. The sensor surface was activated with NHS and EDC, after which 15 μg/mL of anti-GST antibody was injected for 420 s and the surface was blocked with 1 M ethanolamine, pH 8.5. […] For each analyte, 50 μg/mL of GST-G was captured for 60 s and 10 mM glycine-HCl (pH 2.1) was used to regenerate the surface. MBP-B was analyzed with 120 s injection and 120 s dissociation. A series of SHK concentrations was analyzed with 90 s injection and 90 s dissociation.

Another data set concerns LoVo xenograft tumor. In words: LoVo xenograft tumor model. Format: in vivo, athymic nude mice. The note with it: mice. As to the method:
Female athymic nude mice aged 5 weeks were purchased from Beijing Vital River Laboratory Animal Technology Co., Ltd., and kept in the SPF Laboratory Animal Center of Dalian Medical University (Dalian, China). All animals were given free access to sterilized food and water and were habituated for 7 days before the experiments. All procedures were carried out in strict accordance with the recommendations established by the Animal Care and Ethics Committee of Dalian Medical University as well as the guidelines promulgated in the U.S. National Institutes of Health Guide for the Care and Use of Laboratory Animals. LoVo cells (LoVo/wt and LoVo/ mut, 5×10^6 in 100 μL PBS) were injected subcutaneously near the axillary fossa of each nude mouse. Two weeks later, when the formed tumor reached 3-4mm, the animals were divided randomly into three groups with 5 mice in each group. […] The tumors were measured with a caliper once every two days, and the tumor volume was calculated using the formula V = 1/2 (width^2 × length). The body weight of the animals was also recorded. After treatment with SHK for 15 days, all experimental mice were sacrificed and the tumors from each mouse were excised and their weight was measured. To determine the expression of the indicated proteins, the tumor tissues were fixed with 10% neutral formalin and embedded in paraffin. Then, 4 μm sections were stained with hematoxylin and eosin, in combination with specific antibodies (iNOS (1:100), COX-2 (1:50), IL-6 (1:100)), and TNFα (1:200)). The stained samples were examined under a Leica DM 4000B fluorescence microscope equipped with a digital camera. The other parts of the tumors were used to prepare tumor tissue lysates for western blot analysis.

Data set [2] has as its system NO release in LoVo and RKO cells. The experiment in a line: Nitric oxide production assay (Griess reagent). Format: cell-based, human. As to the method: After overnight culture in a 96-well plate (1 × 10^4 cells in 100 μL medium per well), the cells were pre-treated with SHK for 1 hour and lipopolysaccharide for an additional 24 hours. The culture supernatant from each well was collected at the end of the experiment and used to measure NO production. The NO production was determined using a commercial NO assay kit on the basis of the Griess reaction (S0021, Beyotime Institute of Biotechnology, Shanghai, China) according to the manufacturer’s instructions.

For the next data set, the system named is LoVo cells. In words: Real-time cell growth (xCELLigence) in IKKβ or NEMO depleted or mutant LoVo cells. Format: cell-based, human. To be noted: SHK 1 μM.

Molecules are shown by their SMILES.

On to `CC(C)=CC[C@@H](O)C1=CC(=O)c2c(O)ccc(O)c2C1=O` [SHK, Shikonin], for which the NF-κB luciferase activity result in data set [1] was “significant inhibition”. This compound gave a Kd on GST-NEMO (1–196) of 8.29 ± 2.38 µM. Besides, in the data set on LoVo xenograft tumor (2.5 and 5 mg/kg daily), the tumor volume result is given as “dramatically decreased” and the tumor weight entry is “dramatically decreased”. Further, the “side effects (body weight)” value in the data set on LoVo xenograft tumor (2.5 and 5 mg/kg) is listed as “slight side effects”. In addition, the “release of NO” value in data set [2] is “dramatically decreased”. Further, the “inhibitory effect on growth of single point mutation cells compared with wild-type” value with LoVo cells (LoVo cells rescued with L737A, M94A, Q98A or R101A) is recorded as “significantly weakened”. Besides, in the data set on LoVo cells (LoVo cells with shRNA), the “inhibitory effect on growth of IKKβ or NEMO depletion cells” value is “significantly weakened”.
